Experimental data: PMC8803738, “Impact of the mouse model and molar amount of injected ligand on the tissue distribution profile of PSMA radioligands” (European Journal of Nuclear Medicine and Molecular Imaging, 2021)

Test system: LNCaP tumor-bearing mice
Experiment: Biodistribution in LNCaP tumor-bearing mice
Conditions: for AUCTu(0→48 h)-to-AUCKi(0→48 h) ratio: LNCaP model (male mice); for AUCTu(0→48 h)-to-AUCKi(0→48 h) ratio / AUC0→48h, Kidneys / AUC0→48h, LNCaP tumor: average ± SE, non-decay-corrected
[1] = LNCaP model, 4 h p.i., 0.05 nmol
[2] = LNCaP model, 4 h p.i., 1.0 nmol
[3] = LNCaP model, 24 h p.i., 0.05 nmol
[4] = LNCaP model, 24 h p.i., 1.0 nmol
[5] = LNCaP model, 48 h p.i., 0.05 nmol
[6] = LNCaP model, 48 h p.i., 1.0 nmol

CC(C)Cc1ccc(C(C)C(=O)NC(CCN)C(=O)NCCCCC(NC(=O)CN2CCN(CC(=O)O)CCN(CC(=O)O)CCN(CC(=O)O)CC2)C(=O)NCC2CCC(C(=O)NC(Cc3ccc4ccccc4c3)C(=O)NCCCCC(NC(=O)NC(CCC(=O)O)C(=O)O)C(=O)O)CC2)cc1 (centres unmarked) [[^177Lu]Lu-Ibu-DAB-PSMA, metal not drawn]
AUCTu(0→48 h)-to-AUCKi(0→48 h) ratio (0.05 nmol): 0.89 ± 0.25 | AUCTu(0→48 h)-to-AUCKi(0→48 h) ratio (1.0 nmol): 1.2 ± 0.2 | AUC0→48h, Kidneys (LNCaP model, 0.05 nmol): 815 ± 103 % IA/g*h | AUC0→48h, LNCaP tumor (LNCaP model, 0.05 nmol): 721 ± 115 % IA/g*h | Increase of tumor-to-kidney AUC0→48 h ratio for high vs low molar amount of injected ligand (LNCaP model, 1.0 nmol vs 0.05 nmol): 1.3 fold | AUC0→48h, Kidneys (LNCaP model, 1.0 nmol): 349 ± 21 % IA/g*h | AUC0→48h, LNCaP tumor (LNCaP model, 1.0 nmol): 402 ± 38 % IA/g*h | Tissue distribution, Blood [1]: 1.6 ± 0.3 % IA/g | Tissue distribution, Bone [1]: 0.63 ± 0.33 % IA/g | Tissue distribution, Heart [1]: 0.61 ± 0.13 % IA/g | Tissue distribution, Intestines [1]: 0.33 ± 0.03 % IA/g | Tissue distribution, Kidneys [1]: 58 ± 10 % IA/g | Tissue distribution, LNCaP tumor [1]: 18 ± 3 % IA/g | Tissue distribution, Liver [1]: 1.3 ± 0.1 % IA/g | Tissue distribution, Lung [1]: 1.4 ± 0.2 % IA/g | Tissue distribution, Muscle [1]: 1.5 ± 1.9 % IA/g | Tissue distribution, Salivary glands [1]: 0.59 ± 0.14 % IA/g | Tissue distribution, Spleen [1]: 1.5 ± 0.4 % IA/g | Tissue distribution, Stomach [1]: 0.32 ± 0.06 % IA/g | Tumor-to-blood ratio [1]: 12 ± 1 | Tumor-to-kidney ratio [1]: 0.32 ± 0.03 | Tumor-to-liver ratio [1]: 14 ± 1 | Tissue distribution, Blood [2]: 0.87 ± 0.29 % IA/g | Tissue distribution, Bone [2]: 0.39 ± 0.17 % IA/g | Tissue distribution, Heart [2]: 0.41 ± 0.11 % IA/g | Tissue distribution, Intestines [2]: 0.23 ± 0.05 % IA/g | Tissue distribution, Kidneys [2]: 16 ± 1 % IA/g | Tissue distribution, LNCaP tumor [2]: 12 ± 2 % IA/g | Tissue distribution, Liver [2]: 0.82 ± 0.09 % IA/g | Tissue distribution, Lung [2]: 0.78 ± 0.19 % IA/g | Tissue distribution, Muscle [2]: 0.22 ± 0.14 % IA/g | Tissue distribution, Salivary glands [2]: 0.38 ± 0.08 % IA/g | Tissue distribution, Spleen [2]: 0.45 ± 0.08 % IA/g | Tissue distribution, Stomach [2]: 0.22 ± 0.06 % IA/g | Tumor-to-blood ratio [2]: 15 ± 5 | Tumor-to-kidney ratio [2]: 0.71 ± 0.10 | Tumor-to-liver ratio [2]: 14 ± 1 | Tissue distribution, Blood [3]: 0.16 ± 0.03 % IA/g | Tissue distribution, Bone [3]: < 0.10 % IA/g | Tissue distribution, Heart [3]: 0.11 ± 0.02 % IA/g | Tissue distribution, Intestines [3]: 0.10 ± 0.01 % IA/g | Tissue distribution, Kidneys [3]: 5.9 ± 1.5 % IA/g | Tissue distribution, LNCaP tumor [3]: 18 ± 7 % IA/g | Tissue distribution, Liver [3]: 0.48 ± 0.08 % IA/g | Tissue distribution, Lung [3]: 0.24 ± 0.03 % IA/g | Tissue distribution, Muscle [3]: < 0.10 % IA/g | Tissue distribution, Salivary glands [3]: 0.18 ± 0.03 % IA/g | Tissue distribution, Spleen [3]: 0.35 ± 0.06 % IA/g | Tissue distribution, Stomach [3]: 0.13 ± 0.04 % IA/g | Tumor-to-blood ratio [3]: 116 ± 37 | Tumor-to-kidney ratio [3]: 3.2 ± 1.1 | Tumor-to-liver ratio [3]: 39 ± 13 | Tissue distribution, Blood [4]: 0.19 ± 0.03 % IA/g | Tissue distribution, Bone [4]: 0.14 ± 0.03 % IA/g | Tissue distribution, Heart [4]: 0.12 ± 0.02 % IA/g | Tissue distribution, Intestines [4]: 0.12 ± 0.03 % IA/g | Tissue distribution, Kidneys [4]: 6.8 ± 1.1 % IA/g | Tissue distribution, LNCaP tumor [4]: 8.8 ± 2.2 % IA/g | Tissue distribution, Liver [4]: 0.45 ± 0.07 % IA/g | Tissue distribution, Lung [4]: 0.23 ± 0.03 % IA/g | Tissue distribution, Muscle [4]: < 0.10 % IA/g | Tissue distribution, Salivary glands [4]: 0.16 ± 0.02 % IA/g | Tissue distribution, Spleen [4]: 0.21 ± 0.06 % IA/g | Tissue distribution, Stomach [4]: 0.23 ± 0.10 % IA/g | Tumor-to-blood ratio [4]: 46 ± 12 | Tumor-to-kidney ratio [4]: 1.3 ± 0.2 | Tumor-to-liver ratio [4]: 20 ± 3 | Tissue distribution, Blood [5]: 0.10 ± 0.02 % IA/g | Tissue distribution, Bone [5]: < 0.10 % IA/g | Tissue distribution, Heart [5]: < 0.10 % IA/g | Tissue distribution, Intestines [5]: < 0.10 % IA/g | Tissue distribution, Kidneys [5]: 2.0 ± 0.3 % IA/g | Tissue distribution, LNCaP tumor [5]: 16 ± 5 % IA/g | Tissue distribution, Liver [5]: 0.50 ± 0.10 % IA/g | Tissue distribution, Lung [5]: 0.16 ± 0.04 % IA/g | Tissue distribution, Muscle [5]: < 0.10 % IA/g | Tissue distribution, Salivary glands [5]: 0.11 ± 0.01 % IA/g | Tissue distribution, Spleen [5]: 0.31 ± 0.08 % IA/g | Tissue distribution, Stomach [5]: < 0.10 % IA/g | Tumor-to-blood ratio [5]: 155 ± 31 | Tumor-to-kidney ratio [5]: 7.7 ± 1.7 | Tumor-to-liver ratio [5]: 32 ± 7 | Tissue distribution, Blood [6]: 0.09 ± 0.02 % IA/g | Tissue distribution, Bone [6]: < 0.10 % IA/g | Tissue distribution, Heart [6]: < 0.10 % IA/g | Tissue distribution, Intestines [6]: < 0.10 % IA/g | Tissue distribution, Kidneys [6]: 2.4 ± 0.5 % IA/g | Tissue distribution, LNCaP tumor [6]: 9.5 ± 1.1 % IA/g | Tissue distribution, Liver [6]: 0.57 ± 0.09 % IA/g | Tissue distribution, Lung [6]: 0.14 ± 0.03 % IA/g | Tissue distribution, Muscle [6]: < 0.10 % IA/g | Tissue distribution, Salivary glands [6]: < 0.10 % IA/g | Tissue distribution, Spleen [6]: 0.24 ± 0.04 % IA/g | Tissue distribution, Stomach [6]: < 0.10 % IA/g | Tumor-to-blood ratio [6]: 105 ± 14 | Tumor-to-kidney ratio [6]: 4.2 ± 0.7 | Tumor-to-liver ratio [6]: 17 ± 2 | Tissue distribution, Blood (LNCaP model, 48 h p.i., 1.0 nmol, listed as [177Lu]Lu-Ibu-DAB-PSMA): < 0.10 % IA/g
